Data on 20 molecules can be found in patent US4820834A, “Benzodiazepine analogs” (priority 1987, dated 1989).

Like-named read-outs stand apart in the source and are kept apart here.

One assay concerns the target T1, CCK receptor (pancreas) (Rattus norvegicus, UniProt P30551).
T1 construct: The whole pancreas was dissected free of fat tissue and was homogenized; from tissue; host or cells: rat pancreas membranes (Sprague-Dawley)
T1 sequence (P30551 1-444): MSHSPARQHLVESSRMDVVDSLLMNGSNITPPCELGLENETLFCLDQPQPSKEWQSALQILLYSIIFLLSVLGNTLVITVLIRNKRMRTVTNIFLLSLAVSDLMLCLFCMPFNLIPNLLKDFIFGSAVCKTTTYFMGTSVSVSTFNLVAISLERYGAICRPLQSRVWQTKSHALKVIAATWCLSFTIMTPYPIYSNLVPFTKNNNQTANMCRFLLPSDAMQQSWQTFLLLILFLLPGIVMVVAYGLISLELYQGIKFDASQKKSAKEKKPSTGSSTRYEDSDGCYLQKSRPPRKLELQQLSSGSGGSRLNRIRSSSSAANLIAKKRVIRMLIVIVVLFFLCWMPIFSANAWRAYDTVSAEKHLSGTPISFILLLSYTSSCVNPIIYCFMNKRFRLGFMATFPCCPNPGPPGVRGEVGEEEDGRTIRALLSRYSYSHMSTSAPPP
As to the kind of experiment: CCK Receptor Binding (Pancreas): inhibition of ^125 I-CCK-33 binding. Also on record: species or system Male Sprague-Dawley rats. The note with it: rat pancreas membranes, ^125 I-CCK-33, 37° C., 30 minutes. The method, then: 1. CCK Receptor Binding (Pancreas)
CCK-33 was radiolabeled with ^125 I-Bolton Hunter reagent (2000 Ci/mmole) as described by Sankara et al. (J. Biol. Chem. 254: 9349-9351, 1979). Receptor binding was performed according to Innis and Snyder (Proc. Natl. Acad. Sci. 77: 6917-6921, 1980) with the minor modification of adding the additional protease inhibitors, phenylmethane sulfonyl fluoride and o-phenanthroline.
Male Sprague-Dawley rats (200-350 g) were sacrificed by decapitation. The whole pancreas was dissected free of fat tissue and was homogenized in 20 volumes of ice-cold 50 mM, Tris HCl (pH 7.7 at 25° C.) with a Brinkmann Polytron PT 10. The homogenates were centrifuged at 48,000 g for 10 min. Pellets were resuspended in Tris Buffer, centrifuged as above and resuspended in 200 volumes of binding assay buffer (50 mM Tris HCl, pH 7.7 at 25° C., 5 mM dithiothrietol, 0.1 mM bacitracin, 1.2 mM phenylmethane sulfonyl fluoride and 0.5 mM o-phenanthroline). […] All assays were run in duplicate or triplicate. The reaction mixtures were incubated at 37° C. for 30 minutes and centrifuged in a Beckman Microfuge (4 minutes) immediately after adding 1 ml of ice-cold incubation buffer. The supernatant was aspirated and discarded, pellets were counted with a Beckman gamma 5000. For Scatchard analysis (Ann. N.Y. Acad. Sci. 51: 660, 1949), ^125 I-CCK-33 was progressively diluted with increasing concentrations of CCK-33.

For assay [1], the target named is T2, CCK receptor (brain, cerebral cortex) (Cavia porcellus, UniProt H0VZC5).
T2 construct: Cerebral cortex was dissected and used as a receptor source; from tissue; host or cells: guinea pig cerebral cortex membranes (male Hartley)
T2 sequence (H0VZC5 1-426): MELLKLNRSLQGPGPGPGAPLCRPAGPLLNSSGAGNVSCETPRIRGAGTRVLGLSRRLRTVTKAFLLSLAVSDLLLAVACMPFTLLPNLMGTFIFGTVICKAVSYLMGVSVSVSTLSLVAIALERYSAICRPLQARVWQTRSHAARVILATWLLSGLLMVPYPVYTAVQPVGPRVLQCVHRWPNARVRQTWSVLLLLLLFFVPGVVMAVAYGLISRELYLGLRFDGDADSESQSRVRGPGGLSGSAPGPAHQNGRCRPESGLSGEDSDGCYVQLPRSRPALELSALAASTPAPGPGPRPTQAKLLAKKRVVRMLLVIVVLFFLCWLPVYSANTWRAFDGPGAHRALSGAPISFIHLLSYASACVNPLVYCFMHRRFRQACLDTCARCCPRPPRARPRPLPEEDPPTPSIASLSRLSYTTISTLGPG
The experiment in a line: biochemical. Type of assay: binding, Male Hartley guinea pigs. Particulars: guinea pig cerebral cortex, ^125 I-CCK-33, 25° C., 2 hours. In outline:
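Guinea pig cerebral cortex homogenate as receptor source, with radiolabeled CCK-33 in HEPES buffer containing MgCl2, bacitracin, EGTA and 0.4% BSA. Incubation 2 h at 25°C; bound ligand pelleted by centrifugation and gamma-counted.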

Assay [2] concerns the target T3, Gastrin receptor (gastric glands) (Cavia porcellus, UniProt H0VZC5).
T3 construct: The washed guinea pig gastric glands prepared as above were resuspended; from tissue; host or cells: guinea pig gastric mucosal glands (male Hartley)
T3 sequence (H0VZC5 1-426): T2 sequence (H0VZC5 1-426)
The experiment in a line: Gastrin Receptor Binding in Guinea Pig Gastric Glands. Also on record: species or system guinea pig (male Hartley). The note with it: 25° C., 30 minutes.

Setting [3] is: read-out: IC50 ^125 I-CCK Pancreas.
[4] abbreviates: read-out: IC50 ^125 I-CCK Brain.
The mark [5] stands for this setting: ^125 I-gastrin, read-out: IC50 ^125 I-Gastrin Gastric Glands.
Setting [6] is: IC50 ^125 I-Gastrin Gastric Glands.

The IC50 is the midpoint of a concentration-inhibition curve. In the case of “1-(2-Cyanoethyl)-1,3-dihydro-5-(2-fluorophenyl)-3(R)-(3'-indolyl)methyl-2H- 1,4-benzodiazepin-2-one (A, 85%) and 1-(2-cyanoethyl)-1,3-dihydro-5-(2-fluorophenyl)-3(R)-[1'-(2-cyanoethyl)-3'-indolyl]-methyl-2H-1,4-benzodiazpin-2-one (B, 15%) [Example 102]”, the figures for the 50% inhibitory concentration (IC50) (at CCK receptor (pancreas) (setting [3]); in assay [1] (setting [4]); in assay [2] (setting [5])) were 0.7 µM, 30 µM and 12.8 µM, respectively.
As to `CC(C)(C)OC(=O)N[C@@H](Cc1c[nH]c2ccccc12)C(=O)NC1N=C(c2ccccc2)c2ccccc2NC1=O` (mixture of isomers) [Example 77, 3(RS)-(Boc-L-tryptophanyl)amino-1,3-dihydro-5-phenyl-2H-1,4-benzodiazepin-2-one], the IC50 turned out to be 6 µM at CCK receptor (pancreas) (IC50 ^125 I-CCK Pancreas), 20 µM in assay [1] (IC50 ^125 I-CCK Brain) and 250 µM in assay [2] (setting [6]).
Turning to `CC(C)(C)OC(=O)N[C@H](Cc1c[nH]c2ccccc12)C(=O)NC1N=C(c2ccccc2)c2ccccc2NC1=O` (mixture of isomers) [Example 96, 3(RS)-(BOC-D-tryptophanyl)amino-1,3-dihydro-5-phenyl-2H-1,4-benzodiazepin-2-one], the results for the IC50 (on CCK receptor (pancreas) (IC50 ^125 I-CCK Pancreas); in assay [1] (IC50 ^125 I-CCK Brain); in assay [2] (setting [6])) were 17 µM, greater than 100 µM and 500 µM, respectively.
In the case of `CN1C(=O)C(C(O)c2c[nH]c3ccccc23)N=C(c2ccccc2)c2ccccc21` (racemic) [Example 47, 1,3-Dihydro-3(RS)-[1-hydroxy-1-(3'-indolyl)]methyl-1-methyl-5-phenyl-2H-1,4-benzodiazepin-2-one], the IC50 at CCK receptor (pancreas) (IC50 ^125 I-CCK Pancreas) is 24 µM; in assay [1] (setting [4]), 40 µM; in assay [2] (setting [5]), 24 µM.
On to `CN1C(=O)C(C(=O)c2ccsc2)N=C(c2ccccc2)c2ccccc21` (racemic) [Example 48, 1,3-Dihydro-1-methyl-5-phenyl-3-(RS)-(3-thienoyl)-2H-1,4-benzodiazepin-2-one], for which the IC50 on CCK receptor (pancreas) (IC50 ^125 I-CCK Pancreas) is 54 µM; in assay [1] (setting [4]), 33 µM; in assay [2] (setting [5]) it was 8.4 µM.
For `CN1C(=O)C(C(O)c2ccsc2)N=C(c2ccccc2)c2ccccc21` (racemic) [Example 49, 1,3-Dihydro-3-(RS)-[1-hydroxy-1-(3-thienyl)]methyl-1-methyl-5-phenyl-2H-1,4-benzodiazepin-2-one] the same measures were greater than 100 µM, 100 µM and 34 µM.
For `CC(=O)N1C(c2ccccc2F)c2ccccc2N(C)C(=O)[C@H]1Cc1cn(C)c2ccccc12` (stereo partly drawn) [Example 27b, 4-acetyl-5-(2-fluorophenyl)-3(R)-[3'-(1'-methylindolyl)-methyl]-1-methyl-1,3,4,5-tetrahydro-2H-1,4-benzodiazepin-2-one], the values for the IC50 (at CCK receptor (pancreas) (setting [3]); in assay [1] (setting [4])) were 100 µM and greater than 100 µM, respectively.
Take `O=C1Nc2ccc(Cl)cc2C(c2ccccc2Cl)=N[C@@H]1Cc1c[nH]c2ccccc12` [Example 28, 7-Chloro-5-(2-chlorophenyl)-1,3-dihydro-3(R)-(3'-indolyl)methyl-2H-1,4-benzodiazepin-2-one]: the concentration for half-maximal inhibition (IC50) at CCK receptor (pancreas) (IC50 ^125 I-CCK Pancreas) was 5 µM; in assay [1] (IC50 ^125 I-CCK Brain) it was greater than 100 µM.
For `O=C1[C@@H](Cc2c[nH]c3ccccc23)N=C(c2ccccc2)c2cc(Cl)ccc2N1Cc1ccccc1` [Example 30, 1-Benzyl-7-chloro-1,3-dihydro-3(R)-(3'-indolyl) methyl-5-phenyl-2H-1,4-benzodiazepin-2-one] the same measures were greater than 100 µM and greater than 100 µM.
For `CN1C(=O)[C@@H](Cc2c[nH]c3ccccc23)N=C(c2ccccc2)c2cc(Cl)ccc21` [Example 31, 7-Chloro-1,3-Dihydro-3(R)-(3'-indolyl)methyl-1-methyl-5-phenyl-2H-1,4-benzodiazepin-2-one] the same measures were 1.4 µM and greater than 100 µM.
On to `O=C1[C@H](Cc2c[nH]c3ccccc23)N=C(c2ccccc2)c2cc(Cl)ccc2N1Cc1ccccc1` [Example 33, 1-Benzyl-7-chloro-1,3-dihydro-3(S)-(3'-indolyl) methyl-5-phenyl-2H-1,4-benzodiazepin-2-one], for which the IC50 (at CCK receptor (pancreas) (IC50 ^125 I-CCK Pancreas); in assay [1] (IC50 ^125 I-CCK Brain)) was greater than 100 µM in each case.
For the molecule `S=C1Nc2ccc(Cl)cc2C(c2ccccc2)=N[C@@H]1Cc1c[nH]c2ccccc12` [Example 34, 7-Chloro-1,3-dihydro-3(R)-(3'-indolyl)methyl-5-phenyl-2H-1,4-benzodiazepin-2-thione], the IC50 was 4.5 µM on CCK receptor (pancreas) (IC50 ^125 I-CCK Pancreas) and greater than 100 µM in assay [1] (IC50 ^125 I-CCK Brain).
With `CCOC(=O)CN1C(=O)[C@@H](Cc2c[nH]c3ccccc23)N=C(c2ccccc2F)c2ccccc21` [Example 42, 1,3-Dihydro-1-(ethoxycarbonylmethyl)-5-(2-fluorophenyl)-3(R)-(3'-indolyl)methyl-2H-1,4-benzodiazepin-2-one], the 50% inhibitory concentration (IC50) at CCK receptor (pancreas) (IC50 ^125 I-CCK Pancreas) was 8.3 µM; in assay [1] (IC50 ^125 I-CCK Brain) it was greater than 100 µM.
In the case of `CN1C(=O)[C@@H](Cc2cn(Cc3ccccc3)c3ccccc23)N=C(c2ccccc2)c2cc(Cl)ccc21` [Example 46, 7-Chloro-1,3-dihydro-3(R)-[3'(1'-benzylindolyl)methyl]1-methyl-5-phenyl-2H-1,4-benzodiazepin-2-one], the IC50 (at CCK receptor (pancreas) (IC50 ^125 I-CCK Pancreas); in assay [1] (IC50 ^125 I-CCK Brain)) was greater than 100 µM throughout.
Regarding `CCCCCc1ccc(C(=O)N[C@H]2N=C(c3ccccc3)c3ccccc3N(C)C2=O)cc1` [Example 201], the IC50 on CCK receptor (pancreas) (setting [3]) was 0.25 µM; in assay [2] (setting [5]), greater than 100 µM.
As for `CCCCCc1ccc(C(=O)N[C@@H]2N=C(c3ccccc3)c3ccccc3N(C)C2=O)cc1` [Example 206, (R)-N-(2,3-Dihydro-1-methyl-2-oxo-5-phenyl-1H-1,4-benzodiazepin-3-yl)-4-pentylbenzamide], the figures for the IC50 (at CCK receptor (pancreas) (setting [3]); in assay [2] (setting [5])) were 12 µM and greater than 100 µM, respectively.
For `CN1CC(CC2N=C(c3ccccc3)c3ccccc3N(C)C2=O)c2ccccc21` (stereo not shown) [Example 211, 3-((2,3-Dihydro-1-methyl-1H-indol-3-yl)methyl)-1,3-dihydro-1-methyl-5-phenyl-2H-1,4-benzodiazepin-2-one], the IC50 on CCK receptor (pancreas) (IC50 ^125 I-CCK Pancreas) was determined as 13 µM; in assay [1] (IC50 ^125 I-CCK Brain), 93 µM.
For `CN1C(=O)C(NC(=O)c2ccc(C(F)(F)F)cc2)N=C(c2ccccc2F)c2ccccc21` (stereo not shown) [Example 218, N-(5-(2-Fluorophenyl)-2,3-dihydro-1-methyl-2-oxo-1H-1,4-benzodiazepin-3-yl)-4-(trifluoromethyl)-benzamide], the IC50 on CCK receptor (pancreas) (IC50 ^125 I-CCK Pancreas) came out at 0.0026 µM; in assay [2] (setting [5]), 1.8 µM.
As for `Cc1cccc(NC(=O)NC2N=C(c3ccccc3)c3ccccc3N(C)C2=O)c1` (stereo not shown) [Example 263, N-(2,3-Dihydro-1-methyl-2-oxo-5-phenyl-1H-1,4-benzodiazepin-3-yl)-N'-(3-methylphenyl)-urea], the IC50 came to 0.0081 µM on CCK receptor (pancreas) (setting [3]) and 0.0031 µM in assay [2] (setting [5]).
Consider `Cc1cccc(NC(=O)N[C@@H]2N=C(c3ccccc3)c3ccccc3N(C)C2=O)c1` [Example 281, (R)-N-(2,3-Dihydro-1-methyl-2-oxo-5-phenyl-1H-1,4-benzodiazepin-3-yl)-N'-(3-methylphenyl)-urea], for which the concentration for half-maximal inhibition (IC50) at CCK receptor (pancreas) (IC50 ^125 I-CCK Pancreas) was 1.4 µM; in assay [2] (setting [5]), 0.00066 µM.
